assay: recombinant barcode read abundance after kanamycin selection (control-corrected) (log10(CPM+1)); higher = more efficient recombination; sequences stand for … in AGTGCAGAGAAAATCGGCCAGTTTTCTCTGCCTGCAGTCCGCATGCCGT…AGATTTATGCAGCGGACTGCCTTTCTCCCAAAGTGATAAACCGGACAGTATCATGGACCGGTTTTCCCGGTAATCCGTATTTGCAAGGTTGGTTTCACT; site = the 11-nt target
Summary of the method: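 Recombination efficiency in this pooled E. coli screen uses counts per million of barcodes at recombinant junctions, averaged and corrected against the control. The reported form is log10(CPM+1). Two replicates were plated on chloramphenicol/ampicillin LB agar as control and two on chloramphenicol/ampicillin/kanamycin with 0.1 mM IPTG.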
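Also: IS621 recombinase and bridge RNA in Escherichia coli cells.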

Sequence | recombinant barcode read abundance (log10)
TTGGTCCCTTGGGTTCTAACCTGTTGCCT (site TTGGTGCCTAG) | 0.0514
GGCGCATCTTGGGTTCTAACCTGTTGCCT (site GGCGCGTCTAG) | 0.207
ACTAGGGCTTGGGTTCTAACCTGTTGCGG (site ACTAGGGCTCC) | 3.25
CGGTCTACTTGGGTTCTAACCTGTTGCCT (site CGGTCTACTAG) | 0.219
TGGTCTACTTGGGTTCTAACCTGTTGCTT (site TGGTCTACTAA) | 0.154
ACTAACCCTTGGGTTCTAACCTGTTGCCT (site AGTAACCCTAG) | 0.08
CACTGGACTTGGGTTCTAACCTGTTGCCT (site CACTGGACTAG) | 1.04
AATTTGACTTGGGTTCTAACCTGTTGCCT (site AAATTGACTAG) | 0.218
CGCCTCTCTTGGGTTCTAACCTGTTGCCT (site CGCCTCGCTAG) | 0.307
GGTTACCCTTGGGTTCTAACCTGTTGCGG (site GGTGACCCTCC) | 0.115
AGACTAACTTGGGTTCTAACCTGTTGCCT (site ATACTAACTAG) | 0.29
GCATCTCCTTGGGTTCTAACCTGTTGCCT (site TCATCTCCTAG) | 0.0491
CCTGGGACTTGGGTTCTAACCTGTTGCTA (site ATGATACCTAT) | 0.186
GTATGAGCTTGGGTTCTAACCTGTTGCCA (site GTATGAGCTTG) | 0.906
GAGACATCTTGGGTTCTAACCTGTTGCCT (site GAGAAATCTAG) | 0.11
AAGGTTCCTTGGGTTCTAACCTGTTGCTA (site AAGGTTCCTTA) | 1.73
GAGAGGTCTTGGGTTCTAACCTGTTGCGT (site GAGAGGTCTAG) | 0.613
TCTGCGACTTGGGTTCTAACCTGTTGCCT (site TCGGCGACTAG) | 0.114
CTTGGAGCTTGGGTTCTAACCTGTTGCCT (site CTTGGACCTAG) | 0.247
ACAATACCTTGGGTTCTAACCTGTTGCCG (site ACAATAGCTAG) | 0.51
CAGTTAGCTTGGGTTCTAACCTGTTGCCT (site CAGTTAGCTAG) | 0.642
GCATCTCCTTGGGTTCTAACCTGTTGCCT (site GCATCTCCTAG) | 1.06

Sequence | recombinant barcode read abundance (log10)
CTAGCGGCTTGGGTTCTAACCTGTTGCAG (site CTAGCTCCTCT) | 0.0734
CGTAGACCTTGGGTTCTAACCTGTTGCTA (site TTATCCGCTAG) | 0.0216
TAGTATCCTTGGGTTCTAACCTGTTGCGT (site TAGTTTCCTAC) | 0.21
TTAACTACTTGGGTTCTAACCTGTTGCTG (site TTAACTACTGA) | 0.0228
ATTCGAGCTTGGGTTCTAACCTGTTGCGC (site ATTCGAGCTGC) | 2.03
AGCGGGCCTTGGGTTCTAACCTGTTGCCT (site AGCGGTCCTAG) | 0.072
GGCGGAGCTTGGGTTCTAACCTGTTGCCG (site CTGCACCCTTA) | 0.0863
AGCAGAGCTTGGGTTCTAACCTGTTGCTG (site AGCAGAGCTCG) | 0.133
GACATCCCTTGGGTTCTAACCTGTTGCCT (site GACATCCCTAG) | 1.45
ACGTGGTCTTGGGTTCTAACCTGTTGCTA (site ACGTGGTCTTA) | 0.582
ACTTGACCTTGGGTTCTAACCTGTTGCAG (site ACTTGACCTCT) | 1.83
CATCATTCTTGGGTTCTAACCTGTTGCCT (site CATAATTCTAG) | 0.144
TCCGAGACTTGGGTTCTAACCTGTTGCGT (site TCCGAGACTAC) | 1.56
AAGATCACTTGGGTTCTAACCTGTTGCGG (site TTACATGCTAG) | 0.026
TACTATGCTTGGGTTCTAACCTGTTGCGA (site TCCTATTCTTC) | 0
AGGAATTCTTGGGTTCTAACCTGTTGCCT (site AGTAATTCTAG) | 0
ACGCCTCCTTGGGTTCTAACCTGTTGCCA (site ACGCCTCCTTG) | 0.371
CTTCGAGCTTGGGTTCTAACCTGTTGCGG (site CTTCGAGCTCT) | 0.658
AGCCGTACTTGGGTTCTAACCTGTTGCCT (site AGTCGTACTAG) | 0.0183
GTCCTACCTTGGGTTCTAACCTGTTGCTA (site AGAAATACTCG) | 0.442
GATAACGCTTGGGTTCTAACCTGTTGCCT (site GATAACGCTAG) | 1.05
TCATGACCTTGGGTTCTAACCTGTTGCAT (site TCATGACCTAT) | 1.29

Sequence | recombinant barcode read abundance (log10)
TGACGTCCTTGGGTTCTAACCTGTTGCTT (site TGACGTCCTAA) | 0.293
CAGAGCACTTGGGTTCTAACCTGTTGCCT (site AAGAGCACTAG) | 0.107
TCCCAGTCTTGGGTTCTAACCTGTTGCAT (site TCCCAGTCTAT) | 1.88
GAGGTAACTTGGGTTCTAACCTGTTGCAC (site TGTACGCCTAG) | 0.0446
TTGCGAACTTGGGTTCTAACCTGTTGCCT (site TTGCGAACTAG) | 0.868
CTACCTTCTTGGGTTCTAACCTGTTGCCT (site CTACCTTCTAG) | 1.37
GTCCCCTCTTGGGTTCTAACCTGTTGCCT (site GTCTCCTCTAG) | 0.0122
GACGCAACTTGGGTTCTAACCTGTTGCAT (site GACGCAACTAT) | 0.0836
TCACGTCCTTGGGTTCTAACCTGTTGCCT (site TCACGTCCTAC) | 0.0778
CGGTTGCCTTGGGTTCTAACCTGTTGCGT (site CGGTCGCCTAT) | 0.318
GTGTTTCCTTGGGTTCTAACCTGTTGCAT (site GTGTTTCCTAT) | 0.832
CTGCAAGCTTGGGTTCTAACCTGTTGCCT (site CTACAAGCTAG) | 1.29
ATGGTGACTTGGGTTCTAACCTGTTGCCT (site ATGGTGCCTAG) | 0.296
CTTACTACTTGGGTTCTAACCTGTTGCCT (site ATCACTACTAG) | 0.105
CTCCTCCCTTGGGTTCTAACCTGTTGCCT (site CTCCTCCCTAG) | 1.29
TAGCCGTCTTGGGTTCTAACCTGTTGCAC (site TAGCCGTCTGT) | 1.4
CTCGGACCTTGGGTTCTAACCTGTTGCCT (site CTCGGAGCTAG) | 0.147
AAACTCGCTTGGGTTCTAACCTGTTGCCT (site AAACTCGCTAG) | 1.8
ATATGAGCTTGGGTTCTAACCTGTTGCTT (site ATATGAGCTAA) | 0.283
TCACGGTCTTGGGTTCTAACCTGTTGCCT (site TCACGGTCTAG) | 0.598
CTACCCTCTTGGGTTCTAACCTGTTGCAT (site CTATCCTCTAT) | 0.413
TGCGGAGCTTGGGTTCTAACCTGTTGCCT (site TGCGGAGCTAG) | 0.875

Sequence | recombinant barcode read abundance (log10)
AATGGATCTTGGGTTCTAACCTGTTGCCT (site AATGGATCTAG) | 1.01
AAGCAAACTTGGGTTCTAACCTGTTGCCT (site AAGCCAACTAG) | 0.0799
ACGTGGCCTTGGGTTCTAACCTGTTGCCA (site ACGTGGTCTTA) | 0.275
TGTACCTCTTGGGTTCTAACCTGTTGCCT (site TGTGCCTCTAG) | 0.0235
CCTCGGGCTTGGGTTCTAACCTGTTGCAG (site CCTCGGGCTCT) | 1.23
ATGCACGCTTGGGTTCTAACCTGTTGCCT (site ATGCACGCTAG) | 1.81
TCTACGTCTTGGGTTCTAACCTGTTGCCT (site TCTACCTCTAG) | 0.00686
CACAATACTTGGGTTCTAACCTGTTGCCT (site CACAATACTAG) | 1.03
AGACTGGCTTGGGTTCTAACCTGTTGCCT (site CGACAGGCTAG) | 0.176
AAGCCACCTTGGGTTCTAACCTGTTGCCT (site CAGCCACCTAG) | 0.126
ACTTCTGCTTGGGTTCTAACCTGTTGCCT (site ACTTCTGCTAG) | 0.528
CTCGGATCTTGGGTTCTAACCTGTTGCTA (site CTCGGATCTCA) | 0.15
CAGGCGTCTTGGGTTCTAACCTGTTGCAC (site CAGGCGTCTGT) | 1.12
GGTTACCCTTGGGTTCTAACCTGTTGCGG (site GGTAACCCTCC) | 0.716
TCGACGCCTTGGGTTCTAACCTGTTGCTT (site ACGACGTCTAA) | 0.0317
ACTAGTCCTTGGGTTCTAACCTGTTGCCA (site ACTACTCCTTC) | 0.0602
TACCGGCCTTGGGTTCTAACCTGTTGCCT (site TAACGGCCTAG) | 0.288
CCTCGGGCTTGGGTTCTAACCTGTTGCAG (site CATCGGGCTCT) | 0.0896
GCCATACCTTGGGTTCTAACCTGTTGCCT (site GCCACACCTAG) | 0.0723
AGTTGCCCTTGGGTTCTAACCTGTTGCCT (site AATTGCCCTAG) | 0.738
